From patent US20250361230A1, “LATS Inhibitors and Uses Thereof” (The USA, as Represented by the Secretary, Dept. of Heath …, priority 2022, published 2025)
Read-outs that look alike come from different tables or passages of the source.

What was measured:
Format in all cases: biochemical
LATS1 = biological target: T1, LATS1 (Homo sapiens, UniProt O95835); assay: RBC HotSpot kinase assay (33P-ATP, P81 filter-binding), LATS1; conditions: read-out: LATS1 IC50
T1 sequence (O95835 1-1130): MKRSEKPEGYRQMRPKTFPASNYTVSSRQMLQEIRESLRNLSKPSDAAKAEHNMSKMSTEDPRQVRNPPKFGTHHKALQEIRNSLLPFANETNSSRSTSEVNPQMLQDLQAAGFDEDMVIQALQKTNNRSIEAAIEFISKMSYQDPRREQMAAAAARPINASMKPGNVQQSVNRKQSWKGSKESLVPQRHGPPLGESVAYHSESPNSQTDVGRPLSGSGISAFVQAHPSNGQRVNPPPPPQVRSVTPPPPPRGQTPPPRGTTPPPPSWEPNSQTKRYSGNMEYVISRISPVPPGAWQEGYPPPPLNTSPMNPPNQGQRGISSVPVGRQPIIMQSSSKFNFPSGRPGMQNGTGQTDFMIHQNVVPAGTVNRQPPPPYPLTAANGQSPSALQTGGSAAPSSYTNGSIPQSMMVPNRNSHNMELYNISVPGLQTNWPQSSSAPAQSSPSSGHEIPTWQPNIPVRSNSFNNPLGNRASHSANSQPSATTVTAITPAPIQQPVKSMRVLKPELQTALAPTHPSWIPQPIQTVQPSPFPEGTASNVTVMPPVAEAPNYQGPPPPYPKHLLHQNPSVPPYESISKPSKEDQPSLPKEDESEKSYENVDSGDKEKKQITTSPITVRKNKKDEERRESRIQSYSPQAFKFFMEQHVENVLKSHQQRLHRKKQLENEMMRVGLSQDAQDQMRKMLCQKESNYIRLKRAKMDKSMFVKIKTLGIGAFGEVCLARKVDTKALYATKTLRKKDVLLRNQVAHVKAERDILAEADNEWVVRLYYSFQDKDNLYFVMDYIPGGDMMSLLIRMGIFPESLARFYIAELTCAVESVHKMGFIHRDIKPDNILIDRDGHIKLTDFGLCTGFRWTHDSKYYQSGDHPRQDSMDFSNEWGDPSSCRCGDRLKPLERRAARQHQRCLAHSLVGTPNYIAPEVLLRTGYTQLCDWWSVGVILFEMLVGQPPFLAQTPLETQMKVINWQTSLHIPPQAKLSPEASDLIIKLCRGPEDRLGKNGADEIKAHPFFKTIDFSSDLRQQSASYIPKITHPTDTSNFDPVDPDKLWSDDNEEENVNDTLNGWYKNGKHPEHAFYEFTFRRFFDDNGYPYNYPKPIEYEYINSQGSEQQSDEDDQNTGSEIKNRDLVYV
Outline: (§1)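 Substrate in fresh buffer receives cofactors, then kinase, then compound in DMSO for a 20 min room-temperature preincubation. Reactions start with 33P-ATP and run 2 h; phosphorylation is read by P81 filter binding, and IC50 comes from a 10-point curve.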

LATS2 = biological target: T2, LATS2 (Homo sapiens, UniProt Q9NRM7); assay: RBC HotSpot kinase assay (33P-ATP, P81 filter-binding), LATS2; conditions: read-out: LATS2 IC50
T2 sequence (Q9NRM7 1-1088): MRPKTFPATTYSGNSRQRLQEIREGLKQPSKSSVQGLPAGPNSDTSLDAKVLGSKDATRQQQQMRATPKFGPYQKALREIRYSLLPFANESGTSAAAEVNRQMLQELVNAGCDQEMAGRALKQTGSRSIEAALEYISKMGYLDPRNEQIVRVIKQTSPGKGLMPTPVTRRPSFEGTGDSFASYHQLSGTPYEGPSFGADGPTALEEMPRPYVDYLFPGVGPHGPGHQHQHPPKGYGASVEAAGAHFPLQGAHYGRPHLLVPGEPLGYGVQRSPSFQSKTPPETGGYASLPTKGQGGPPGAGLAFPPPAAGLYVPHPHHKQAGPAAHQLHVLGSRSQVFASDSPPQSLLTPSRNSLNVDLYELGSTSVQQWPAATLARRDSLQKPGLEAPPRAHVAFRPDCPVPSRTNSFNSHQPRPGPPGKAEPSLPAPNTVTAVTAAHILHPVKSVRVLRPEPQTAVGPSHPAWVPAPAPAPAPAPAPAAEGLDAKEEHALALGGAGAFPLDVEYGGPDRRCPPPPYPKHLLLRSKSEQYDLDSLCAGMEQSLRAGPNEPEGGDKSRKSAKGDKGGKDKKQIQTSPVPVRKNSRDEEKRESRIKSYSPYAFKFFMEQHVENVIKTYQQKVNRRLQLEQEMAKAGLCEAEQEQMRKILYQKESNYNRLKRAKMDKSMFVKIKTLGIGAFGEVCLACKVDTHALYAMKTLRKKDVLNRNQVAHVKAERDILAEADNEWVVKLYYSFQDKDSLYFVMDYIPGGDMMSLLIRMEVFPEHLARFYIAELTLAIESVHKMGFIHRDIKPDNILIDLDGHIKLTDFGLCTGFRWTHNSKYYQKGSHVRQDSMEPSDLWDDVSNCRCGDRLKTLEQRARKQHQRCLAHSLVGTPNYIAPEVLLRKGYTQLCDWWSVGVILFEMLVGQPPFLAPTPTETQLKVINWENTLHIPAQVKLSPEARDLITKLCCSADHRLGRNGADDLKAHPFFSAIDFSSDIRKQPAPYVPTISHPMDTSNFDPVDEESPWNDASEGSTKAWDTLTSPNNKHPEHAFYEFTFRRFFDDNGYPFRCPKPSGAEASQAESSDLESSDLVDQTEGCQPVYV
Outline: as §1

AKT = AKT (Homo sapiens, UniProt P31749); assay: RBC HotSpot kinase assay (33P-ATP, P81 filter-binding), AKT; conditions: read-out: AKT IC50
Outline: as §1

[1] = Table 28, biochemical kinase assay
[2] = Table 32, biochemical kinase assay

Chain of AKT (P31749 whole entry): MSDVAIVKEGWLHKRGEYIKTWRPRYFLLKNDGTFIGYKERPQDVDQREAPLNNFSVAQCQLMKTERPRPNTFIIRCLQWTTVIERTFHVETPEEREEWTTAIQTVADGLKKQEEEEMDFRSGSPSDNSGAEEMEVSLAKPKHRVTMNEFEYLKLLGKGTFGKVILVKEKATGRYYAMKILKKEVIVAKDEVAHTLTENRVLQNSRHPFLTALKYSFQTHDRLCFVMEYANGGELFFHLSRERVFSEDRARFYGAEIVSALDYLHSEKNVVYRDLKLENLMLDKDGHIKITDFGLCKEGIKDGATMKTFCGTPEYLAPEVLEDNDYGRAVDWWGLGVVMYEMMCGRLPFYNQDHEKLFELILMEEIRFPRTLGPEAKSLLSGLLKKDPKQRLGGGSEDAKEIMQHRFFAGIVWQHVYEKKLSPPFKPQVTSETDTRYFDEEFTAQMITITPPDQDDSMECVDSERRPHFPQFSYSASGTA

| IC50 (LATS1; [2]) | IC50 (LATS2; [2]) | IC50 (AKT; [2]) | IC50 (LATS1; biochemical kinase inhibition) | IC50 (LATS2; biochemical kinase inhibition) | IC50 (AKT; biochemical kinase inhibition) | SMILES | further results |
| --- | --- | --- | --- | --- | --- | --- | --- |
| 5.7 nM | 11.1 nM | 4.6 nM | – | – | – | NCC(O)(c1ccc(Cl)cc1)c1ccc(-c2ccnc3[nH]cc(F)c23)cc1 (stereo not drawn) [Compound 1002, 2-amino-1-(4-chlorophenyl)-1-(4-(3-fluoro-1H-pyrrolo[2,3-b]pyridin-4-yl)phenyl)ethan-1-ol] | – |
| 4 nM | 5.3 nM | 18.1 nM | – | – | – | COC(=O)c1c[nH]c2nccc(-c3ccc(C(O)(CN)c4ccc(Cl)cc4)cc3)c12 (stereo not drawn) [Compound 1004, Methyl 4-(4-(2-amino-1-(4-chlorophenyl)-1-hydroxyethyl)phenyl)-1H-pyrrolo[2,3-b]pyridine-3-carboxylate] | – |
| – | – | – | 10.9 nM | 4.6 nM | 188 nM | Cc1cc(-c2ccnc3[nH]cc(C#N)c23)cc(F)c1[C@@]1(O)[C@H](C)CN(C2CCS(=O)(=O)CC2)C[C@@H]1C [Compound 2002, 4-(4-((3S,4s,5R)-1-(1,1-dioxidotetrahydro-2H-thiopyran-4-yl)-4-hydroxy-3,5-dimethylpiperidin-4-yl)-3-fluoro-5-methylphenyl)-1H-pyrrolo[2,3-b]pyridine-3-carbonitrile] | – |
| – | – | – | 6.7 nM | 2 nM | 118 nM | Cc1cc(-c2ccnc3[nH]cc(C#N)c23)cc(F)c1[C@@]1(O)[C@H](C)CN(C(=O)CN)C[C@@H]1C [Compound 2004, 4-(3-fluoro-4-((3S,4s,5R)-1-glycyl-4-hydroxy-3,5-dimethylpiperidin-4-yl)-5-methylphenyl)-1H-pyrrolo[2,3-b]pyridine-3-carbonitrile] | – |
| – | – | – | 3.3 nM | 1.2 nM | 22 nM | Cc1cc(-c2ccnc3[nH]cc(C#N)c23)ccc1[C@@]1(O)[C@H](C)CN(C(=O)CN)C[C@@H]1C [Compound 2005, 4-(4-((3S,4s,5R)-1-glycyl-4-hydroxy-3,5-dimethylpiperidin-4-yl)-3-methylphenyl)-1H-pyrrolo[2,3-b]pyridine-3-carbonitrile] | – |
| – | – | – | 8.5 nM | 5.3 nM | 159 nM | Cc1cc(-c2ccnc3[nH]cc(C#N)c23)cc(F)c1[C@@]1(O)[C@H](C)CN(C(=O)[C@H](N)CO)C[C@@H]1C [Compound 2007, 4-(4-((3S,4S,5R)-1-(D-seryl)-4-hydroxy-3,5-dimethylpiperidin-4-yl)-3-fluoro-5-methylphenyl)-1H-pyrrolo[2,3-b]pyridine-3-carbonitrile] | – |
| – | – | – | 5.2 nM | 5.5 nM | 262 nM | Cc1cc(-c2ccnc3[nH]cc(C#N)c23)cc(F)c1[C@@]1(O)[C@H](C)CN(C(=O)[C@](C)(N)CO)C[C@@H]1C [Compound 2008, 4-(4-((3S,4s,5R)-1-(2-amino-3-hydroxy-2-methylpropanoyl)-4-hydroxy-3,5-dimethylpiperidin-4-yl)-3-fluoro-5-methylphenyl)-1H-pyrrolo[2,3-b]pyridine-3-carbonitrile] | – |
| – | – | – | 25 nM | 16 nM | 1030 nM | Cc1cc(-c2ccnc3[nH]cc(C#N)c23)cc(F)c1[C@@]1(O)[C@H](C)CN(C(=O)[C@H](C)N)C[C@@H]1C [Compound 2011, 4-(4-((3S,4R,5R)-1-(L-alanyl)-4-hydroxy-3,5-dimethylpiperidin-4-yl)-3-fluoro-5-methylphenyl)-1H-pyrrolo[2,3-b]pyridine-3-carbonitrile] | – |
| – | – | – | 5 nM | 2.9 nM | 349 nM | CNCC(=O)N1C[C@@H](C)[C@](O)(c2c(C)cc(-c3ccnc4[nH]cc(C#N)c34)cc2F)[C@@H](C)C1 [Compound 2012, 4-(3-fluoro-4-((3S,4s,5R)-4-hydroxy-3,5-dimethyl-1-(methylglycyl)piperidin-4-yl)-5-methylphenyl)-1H-pyrrolo[2,3-b]pyridine-3-carbonitrile] | – |

Further lines, the compound ahead of its results:

| SMILES | IC50 (LATS1; [2]) | IC50 (LATS2; [2]) | IC50 (AKT; [2]) | IC50 (LATS1; biochemical kinase inhibition) | IC50 (LATS2; biochemical kinase inhibition) | IC50 (AKT; biochemical kinase inhibition) | further results |
| --- | --- | --- | --- | --- | --- | --- | --- |
| OC1(c2ccc(-c3ccnc4[nH]cc(F)c34)cc2)CC2(CNC2)C1 [Compound 319, 6-(4-(3-fluoro-1H-pyrrolo[2,3-b]pyridin-4-yl)phenyl)-2-azaspiro[3.3]heptan-6-ol] | – | – | – | – | – | – | IC50 (LATS1; [1]): 66 nM; IC50 (LATS2; [1]): 29.3 nM; IC50 (AKT; [1]): 378 nM |
| NCC(O)(c1ccc(Cl)cc1)c1ccc(-c2ccnc3[nH]ccc23)cc1 (stereo not drawn) [Compound 1001, 1-(4-(1H-pyrrolo[2,3-b]pyridin-4-yl)phenyl)-2-amino-1-(4-chlorophenyl)ethan-1-ol] | 1.8 nM | 2.1 nM | 0.6 nM | – | – | – | – |
| NCC(O)(c1ccc(Cl)cc1)c1ccc(-c2ccnc3[nH]cc(Br)c23)cc1 (stereo not drawn) [Compound 1005, 2-amino-1-(4-(3-bromo-1H-pyrrolo[2,3-b]pyridin-4-yl)phenyl)-1-(4-chlorophenyl)ethan-1-ol] | 5.1 nM | 8.9 nM | 1.7 nM | – | – | – | – |
| NCC(O)(c1ccc(Cl)cc1)c1ccc(-c2ccnc3[nH]cc(-c4ccccc4)c23)cc1 (stereo not drawn) [Compound 1006, 2-amino-1-(4-chlorophenyl)-1-(4-(3-phenyl-1H-pyrrolo[2,3-b]pyridin-4-yl)phenyl)ethan-1-ol] | 23 nM | 20 nM | 230 nM | – | – | – | – |
| NCC(O)(c1ccc(Cl)cc1)c1ccc(-c2ccnc3[nH]cc(-c4cccnc4)c23)cc1 (stereo not drawn) [Compound 1007, 2-amino-1-(4-chlorophenyl)-1-(4-(3-(pyridin-3-yl)-1H-pyrrolo[2,3-b]pyridin-4-yl)phenyl)ethan-1-ol] | 4.3 nM | 6.1 nM | 35.2 nM | – | – | – | – |
| NCC(O)(c1ccc(Cl)cc1)c1ccc(-c2ccnc3[nH]cc(Br)c23)nc1 (stereo not drawn) [Compound 1011, 2-amino-1-(6-(3-bromo-1H-pyrrolo[2,3-b]pyridin-4-yl)pyridin-3-yl)-1-(4-chlorophenyl)ethan-1-ol] | 0.9 nM | < 0.5 nM | 1 nM | – | – | – | – |
| NCC(=O)NCC(O)(c1ccc(Cl)cc1)c1ccc(-c2ccnc3[nH]cc(Cl)c23)cc1 (stereo not drawn) [Compound 1021, 2-amino-N-(2-(4-(3-chloro-1H-pyrrolo[2,3-b]pyridin-4-yl)phenyl)-2-(4-chlorophenyl)-2-hydroxyethyl) acetamide] | 3.7 nM | 1.6 nM | < 0.5 nM | – | – | – | – |
